From US7138361B2, “Herbicidal heterocycles” (E. I. du Pont de Nemours and Company, priority 2000, dated 2006)

Experiments:
Type in all cases: in vivo
[1] = tested on: Surinam grass (Brachiaria decumbens); assay: Test B preemergence
Procedure, shortened: (§1)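 Greenhouse test: chemicals are formulated in a surfactant-containing non-phytotoxic solvent and applied either preemergence to planted seeds or postemergence to plants 2 to 18 cm tall. Response is rated visually versus controls after 13 to 15 days, 0 meaning no effect and 100 complete control.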

[2] = tested on: cocklebur (Xanthium strumarium); assay: Test B preemergence
Procedure, shortened: as §1

[3] = tested on: corn (Zea mays); assay: Test B preemergence
Procedure, shortened: as §1

[4] = tested on: crabgrass (Digitaria sanguinalis); assay: Test B preemergence
Procedure, shortened: as §1

[5] = tested on: giant foxtail (Setaria faberii); assay: Test B preemergence
Procedure, shortened: as §1

[6] = tested on: lambsquarters (Chenopodium album); assay: Test B preemergence
Procedure, shortened: as §1

[7] = tested on: morning glory (Ipomoea hederacea); assay: Test B preemergence
Procedure, shortened: as §1

[8] = tested on: pigweed (Amaranthus retroflexus); assay: Test B preemergence
Procedure, shortened: as §1

[9] = tested on: rice (Oryza saliva); assay: Test B preemergence
Procedure, shortened: as §1

[10] = tested on: velvetleaf (Abutilon theophrasti); assay: Test B preemergence
Procedure, shortened: as §1

[11] = tested on: bermudagrass (Cynodon dactylon); assay: Test C postemergence
Procedure, shortened: (§2)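 Formulation: non-phytotoxic solvent mix incl. surfactant. Pre: applied right after planting. Post: 1–4-leaf seedlings. Read: visual 0–100, day 12–14, greenhouse.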

[12] = tested on: corn (Zea mays); assay: Test C postemergence
Procedure, shortened: as §2

[13] = tested on: crabgrass (Digitaria sanguinalis); assay: Test C postemergence
Procedure, shortened: as §2

[14] = tested on: giant foxtail (Setaria faberii); assay: Test C postemergence
Procedure, shortened: as §2

[15] = tested on: goosegrass (Eleusine indica); assay: Test C postemergence
Procedure, shortened: as §2

[16] = tested on: kochia (Kochia scoparia); assay: Test C postemergence
Procedure, shortened: as §2

[17] = tested on: lambsquarters (Chenopodium album); assay: Test C postemergence
Procedure, shortened: as §2

[18] = tested on: morningglory (Ipomoea hederacea); assay: Test C postemergence
Procedure, shortened: as §2

[19] = tested on: pigweed (Amaranthus retroflexus); assay: Test C postemergence
Procedure, shortened: as §2

[20] = tested on: soybean (Glycine max); assay: Test C postemergence
Procedure, shortened: as §2

[21] = tested on: velvetleaf (Abutilon theophrasti); assay: Test C postemergence
Procedure, shortened: as §2

[22] = tested on: woolly cupgrass (Eriochloa villosa); assay: Test C postemergence
Procedure, shortened: as §2

[23] = tested on: yellow nutsedge (Cyperus esculentus); assay: Test C postemergence
Procedure, shortened: as §2

[24] = Preemergence, Rate 500 g/ha, scale 0 to 100, 0 no effect, 100 complete control
[25] = preemergence, Rate 125 g/ha, scale of 0 to 100 where 0 is no effect and 100 is complete control, 13 to 15 days
[26] = Rate 125 g/ha, scale 0 to 100, 0 no effect, 100 complete control
[27] = Rate 250 g/ha, scale 0 to 100 (0 no effect, 100 complete control)
[28] = Rate 500 g/ha, scale 0 to 100 (0 no effect, 100 complete control)

CCC(C)c1ccn(C2CCN(c3ccc(Br)c(OC)c3)C2=O)n1 (stereo not shown) [Compound 142]
Plant response rating, Surinam grass [1, 24]: 100 | Plant response rating, Surinam grass [1, 25]: 100 | Plant response rating, Cocklebur [2, 24]: 60 | Plant response rating, Cocklebur [2, 25]: 0 | Plant response rating, Corn [3, 24]: 20 | Plant response rating, Corn [3, 25]: 0 | Plant response rating, Crabgrass [4, 24]: 100 | Plant response rating, Crabgrass [4, 25]: 100 | Plant response rating, Foxtail, Giant [5, 24]: 100 | Plant response rating, Foxtail, Giant [5, 25]: 100 | Plant response rating, Lambsquarters [6, 24]: 100 | Plant response rating, Lambsquarters [6, 25]: 100 | Plant response rating, Morningglory [7, 24]: 50 | Plant response rating, Morningglory [7, 25]: 20 | Plant response rating, Pigweed [8, 24]: 100 | Plant response rating, Pigweed [8, 25]: 100 | Plant response rating, Rice [9, 24]: 40 | Plant response rating, Rice [9, 25]: 20 | Plant response rating, Velvetleaf [10, 24]: 90 | Plant response rating, Velvetleaf [10, 25]: 20 | Plant response rating, Bermudagrass ([11]; Rate 62 g/ha, scale 0 to 100): 30 | Plant response rating, Bermudagrass [11, 26]: 40 | Plant response rating, Bermudagrass [11, 27]: 60 | Plant response rating, Bermudagrass [11, 28]: 80 | Plant response rating, Corn ([12]; Rate 62 g/ha, scale 0 to 100): 0 | Plant response rating, Corn [12, 27]: 0 | Plant response rating, Corn [12, 28]: 20 | Plant response rating, Corn ([12]; scale 0 to 100): 0 | Plant response rating, Crabgrass ([13]; Rate 62 g/ha, scale 0 to 100): 40 | Plant response rating, Crabgrass [13, 27]: 70 | Plant response rating, Crabgrass [13, 28]: 70 | Plant response rating, Foxtail, Giant ([14]; Rate 62 g/ha, scale 0 to 100): 90 | Plant response rating, Foxtail, Giant [14, 27]: 90 | Plant response rating, Foxtail, Giant [14, 28]: 90 | Plant response rating, Goosegrass ([15]; Rate 62 g/ha, scale 0 to 100): 30 | Plant response rating, Goosegrass [15, 27]: 50 | Plant response rating, Goosegrass [15, 28]: 70 | Plant response rating, Kochia ([16]; Rate 62 g/ha, scale 0 to 100): 40 | Plant response rating, Kochia [16, 27]: 90 | Plant response rating, Kochia [16, 28]: 90 | Plant response rating, Lambsquarters ([17]; Rate 62 g/ha, scale 0 to 100): 80 | Plant response rating, Lambsquarters [17, 27]: 100 | Plant response rating, Lambsquarters [17, 28]: 100 | Plant response rating, Morningglory ([18]; Rate 62 g/ha, scale 0 to 100): 20 | Plant response rating, Morningglory [18, 27]: 100 | Plant response rating, Morningglory [18, 28]: 100 | Plant response rating, Pigweed ([19]; Rate 62 g/ha, scale 0 to 100): 80 | Plant response rating, Pigweed [19, 27]: 90 | Plant response rating, Pigweed [19, 28]: 90 | Plant response rating, Soybean ([20]; Rate 62 g/ha, scale 0 to 100): 60 | Plant response rating, Soybean [20, 27]: 90 | Plant response rating, Soybean [20, 28]: 90 | Plant response rating, Velvetleaf ([21]; Rate 62 g/ha, scale 0 to 100): 50 | Plant response rating, Velvetleaf [21, 27]: 80 | Plant response rating, Velvetleaf [21, 28]: 80 | Plant response rating, Velvetleaf ([21]; scale 0 to 100): 70 | Plant response rating, Cupgrass, Woolly ([22]; Rate 62 g/ha, scale 0 to 100): 40 | Plant response rating, Cupgrass, Woolly [22, 27]: 50 | Plant response rating, Cupgrass, Woolly [22, 28]: 70 | Plant response rating, Nutsedge ([23]; Rate 62 g/ha, scale 0 to 100): 0 | Plant response rating, Nutsedge [23, 27]: 0 | Plant response rating, Nutsedge [23, 28]: 20

CCC(CC)c1ccn(C2CCN(c3ccc(Br)c(OC)c3)C2=O)n1 (stereo not shown) [Compound 143]
Plant response rating, Surinam grass [1, 24]: 90 | Plant response rating, Surinam grass [1, 25]: 80 | Plant response rating, Cocklebur [2, 24]: 30 | Plant response rating, Cocklebur [2, 25]: 0 | Plant response rating, Corn [3, 24]: 20 | Plant response rating, Corn [3, 25]: 0 | Plant response rating, Crabgrass [4, 24]: 100 | Plant response rating, Crabgrass [4, 25]: 100 | Plant response rating, Foxtail, Giant [5, 24]: 100 | Plant response rating, Foxtail, Giant [5, 25]: 100 | Plant response rating, Lambsquarters [6, 24]: 100 | Plant response rating, Lambsquarters [6, 25]: 100 | Plant response rating, Morningglory [7, 24]: 70 | Plant response rating, Morningglory [7, 25]: 20 | Plant response rating, Pigweed [8, 24]: 100 | Plant response rating, Pigweed [8, 25]: 100 | Plant response rating, Rice [9, 24]: 30 | Plant response rating, Rice [9, 25]: 0 | Plant response rating, Velvetleaf [10, 24]: 80 | Plant response rating, Velvetleaf [10, 25]: 60 | Plant response rating, Bermudagrass ([11]; Rate 62 g/ha, scale 0 to 100): 20 | Plant response rating, Bermudagrass [11, 26]: 40 | Plant response rating, Bermudagrass [11, 27]: 70 | Plant response rating, Bermudagrass [11, 28]: 80 | Plant response rating, Corn ([12]; Rate 62 g/ha, scale 0 to 100): 0 | Plant response rating, Corn [12, 27]: 0 | Plant response rating, Corn [12, 28]: 30 | Plant response rating, Corn ([12]; scale 0 to 100): 0 | Plant response rating, Crabgrass ([13]; Rate 62 g/ha, scale 0 to 100): 40 | Plant response rating, Crabgrass [13, 27]: 70 | Plant response rating, Crabgrass [13, 28]: 70 | Plant response rating, Foxtail, Giant ([14]; Rate 62 g/ha, scale 0 to 100): 30 | Plant response rating, Foxtail, Giant [14, 27]: 80 | Plant response rating, Foxtail, Giant [14, 28]: 90 | Plant response rating, Goosegrass ([15]; Rate 62 g/ha, scale 0 to 100): 30 | Plant response rating, Goosegrass [15, 27]: 60 | Plant response rating, Goosegrass [15, 28]: 70 | Plant response rating, Kochia ([16]; Rate 62 g/ha, scale 0 to 100): 40 | Plant response rating, Kochia [16, 27]: 90 | Plant response rating, Kochia [16, 28]: 90 | Plant response rating, Lambsquarters ([17]; Rate 62 g/ha, scale 0 to 100): 90 | Plant response rating, Lambsquarters [17, 27]: 90 | Plant response rating, Lambsquarters [17, 28]: 100 | Plant response rating, Morningglory ([18]; Rate 62 g/ha, scale 0 to 100): 90 | Plant response rating, Morningglory [18, 27]: 100 | Plant response rating, Morningglory [18, 28]: 100 | Plant response rating, Pigweed ([19]; Rate 62 g/ha, scale 0 to 100): 70 | Plant response rating, Pigweed [19, 27]: 70 | Plant response rating, Pigweed [19, 28]: 90 | Plant response rating, Soybean ([20]; Rate 62 g/ha, scale 0 to 100): 60 | Plant response rating, Soybean [20, 27]: 100 | Plant response rating, Soybean [20, 28]: 100 | Plant response rating, Velvetleaf ([21]; Rate 62 g/ha, scale 0 to 100): 40 | Plant response rating, Velvetleaf [21, 27]: 80 | Plant response rating, Velvetleaf [21, 28]: 90 | Plant response rating, Velvetleaf ([21]; scale 0 to 100): 40 | Plant response rating, Cupgrass, Woolly ([22]; Rate 62 g/ha, scale 0 to 100): 40 | Plant response rating, Cupgrass, Woolly [22, 27]: 60 | Plant response rating, Cupgrass, Woolly [22, 28]: 70 | Plant response rating, Nutsedge ([23]; Rate 62 g/ha, scale 0 to 100): 0 | Plant response rating, Nutsedge [23, 27]: 0 | Plant response rating, Nutsedge [23, 28]: 0
